Experimental data as given in paper PMC5065719 (Biochemistry, 2013).

Biological target: IscU (Azotobacter vinelandii, UniProt O31270)
Experiment: UV/Vis absorption and visible CD during in vitro Fe-S cluster assembly
Format: binding
Details: anaerobic, IscS, Cys, DTT, cluster assembled in situ

Sequence of IscU (O31270 whole entry): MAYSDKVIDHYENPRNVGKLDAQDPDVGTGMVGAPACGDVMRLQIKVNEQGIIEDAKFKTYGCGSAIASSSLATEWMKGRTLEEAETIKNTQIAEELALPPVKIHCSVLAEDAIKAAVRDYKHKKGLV

[S]1[Fe][S][Fe]1 [[2Fe-2S] cluster]
UV/Vis absorption and visible CD during in vitro Fe-S cluster assembly: shows the formation of the [2Fe-2S] cluster as previously reported for IscU (A)
